Assay results as given in US10508120B2, “TYK2 inhibitors and uses thereof” (Nimbus Lakshmi, Inc., priority 2017, dated 2019).
Read-outs that look alike come from different tables or passages of the source.

Experiments:
Tyk2 kinase domain (DH1) = Tyk2 kinase domain (DH1) (Homo sapiens (Human), UniProt P29597); assay: Tyk2 Radioactive Kinase Assay; format: biochemical; conditions: for inhibition at 10 µM: read-out: Tyk2 JH1% Inhibition @ 10 μM
Outline: (§1)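 Compounds were tested at a single concentration of 10 μM in a radiometric kinase format against each isolated kinase domain. Activity is reported as percent inhibition at that concentration.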

JAK2 kinase domain (JH1) = JAK2 kinase domain (JH1) (Homo sapiens (Human), UniProt O60674); assay: JAK2 Radioactive Kinase Assay; format: biochemical; conditions: for inhibition at 10 µM: read-out: JAK2 JH1% Inhibition @ 10 μM
Chain of JAK2 kinase domain (JH1) (O60674 849-1124): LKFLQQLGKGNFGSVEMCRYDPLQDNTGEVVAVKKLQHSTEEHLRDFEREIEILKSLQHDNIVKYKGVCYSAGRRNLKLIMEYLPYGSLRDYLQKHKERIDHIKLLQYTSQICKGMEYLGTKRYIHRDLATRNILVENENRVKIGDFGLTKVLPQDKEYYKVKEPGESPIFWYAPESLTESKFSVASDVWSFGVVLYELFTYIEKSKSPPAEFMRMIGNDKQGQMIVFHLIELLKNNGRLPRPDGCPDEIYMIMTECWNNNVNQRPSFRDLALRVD
Outline: as §1

[1] = biological target: human TYK2 (JH2domain-pseudokinase) (Homo sapiens (Human), UniProt P29597); assay: TYK2 JH2 Domain Binding Assay (KINOMEscan)
Chain of human TYK2 (JH2domain-pseudokinase) (P29597 556-888): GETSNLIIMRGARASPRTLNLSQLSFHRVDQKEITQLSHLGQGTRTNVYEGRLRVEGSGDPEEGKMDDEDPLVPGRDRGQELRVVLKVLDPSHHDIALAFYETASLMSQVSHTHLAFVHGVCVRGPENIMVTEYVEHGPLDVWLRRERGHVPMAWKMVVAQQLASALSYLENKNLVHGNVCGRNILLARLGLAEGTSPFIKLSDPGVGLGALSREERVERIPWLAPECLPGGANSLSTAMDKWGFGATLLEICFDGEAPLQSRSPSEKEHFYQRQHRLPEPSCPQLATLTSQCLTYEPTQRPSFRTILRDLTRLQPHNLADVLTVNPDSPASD
Outline: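 Competition binding of an NFkB-DBD fusion of human TYK2 JH2 (G556–D888), expressed in HEK293 and used as crude extract at <0.1 nM, against immobilized ligand beads; 1 h at room temperature in PBS/Tween/DTT/BSA buffer, 0.9% DMSO.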

Chain of Tyk2 kinase domain (DH1) (P29597 897-1176): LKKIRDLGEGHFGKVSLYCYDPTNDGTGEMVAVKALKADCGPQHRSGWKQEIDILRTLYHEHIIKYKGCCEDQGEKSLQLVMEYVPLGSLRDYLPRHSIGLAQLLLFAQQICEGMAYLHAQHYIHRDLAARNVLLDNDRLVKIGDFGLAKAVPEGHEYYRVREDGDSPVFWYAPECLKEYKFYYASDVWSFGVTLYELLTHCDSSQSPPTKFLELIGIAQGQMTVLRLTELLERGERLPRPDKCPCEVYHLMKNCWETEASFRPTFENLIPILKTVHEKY

| SMILES | Kd [1] [nM] | inhibition at 10 µM (Tyk2 kinase domain (DH1); compound at 10 μM, ATP 10 μM) [%] | inhibition at 10 µM (JAK2 kinase domain (JH1); compound at 10 μM, ATP 10 μM) [%] | further results |
| --- | --- | --- | --- | --- |
| CNc1cc(Nc2cccn([C@H]3CC[C@@H]3O)c2=O)nc2c(C(=O)N[C@@H]3C[C@@H]3F)cnn12 [I-998] | < 0.2 |  |  | Tyk2 JH1% Inhibition @ 10 μM (Tyk2 kinase domain (DH1); 10 μM compound, 10 μM ATP): A (percent inhibition at 10 μM lower than 50); JAK2 JH1% Inhibition @ 10 μM (JAK2 kinase domain (JH1); 10 μM compound, 10 μM ATP): A (percent inhibition at 10 μM lower than 50) |
| CNc1cc(Nc2cc(Cl)cnc2OC2CCOC2)nc2c(C(N)=O)cnn12 (stereo not drawn) [I-71] | < 0.2 | < 50 | < 50 |  |
| CNc1cc(Nc2cccn(-c3ccn(C4CC4)n3)c2=O)nc2c(C(=O)NC3COC3)cnn12 [I-89, 5-((1-(1-cyclopropyl-1H-pyrazol-3-yl)-2-oxo-1,2-dihydropyridin-3-yl)amino)-7-(methylamino)-N-(oxetan-3-yl)pyrazolo[1,5-a]pyrimidine-3-carboxamide] | > 10 | < 50 | < 50 |  |
| CNc1cc(Nc2cccn([C@@H]3CCCC[C@@H]3OC)c2=O)nc2c(C(=O)N[C@H]3CC[C@@H]3OC)cnn12 [I-1037] | 0.2 to 1 |  |  | inhibition at 10 µM (Tyk2 kinase domain (DH1); 10 μM compound, 10 μM ATP): < 50%; inhibition at 10 µM (JAK2 kinase domain (JH1); 10 μM compound, 10 μM ATP): < 50% |
| CNc1cc(Nc2cccn([C@H]3CCN(CCF)C3)c2=O)nc2c(C(=O)N[C@@H]3C[C@@H]3F)cnn12 [I-934] | < 0.2 |  |  | inhibition at 10 µM (Tyk2 kinase domain (DH1); 10 μM compound, 10 μM ATP): < 50%; inhibition at 10 µM (JAK2 kinase domain (JH1); 10 μM compound, 10 μM ATP): < 50% |
| CNc1cc(Nc2cccn(C3CCN(CCF)CC3)c2=O)nc2c(C(=O)N[C@H]3CC[C@H]3O)cnn12 [I-844] | < 0.2 |  |  | inhibition at 10 µM (Tyk2 kinase domain (DH1); 10 μM compound, 10 μM ATP): < 50%; inhibition at 10 µM (JAK2 kinase domain (JH1); 10 μM compound, 10 μM ATP): < 50% |
| CNc1cc(Nc2cccn([C@@H]3CCC[C@H](OC)C3)c2=O)nc2c(C(=O)N[C@H]3CC[C@@H]3O)cnn12 [I-1055] | 0.2 to 1 |  |  | inhibition at 10 µM (Tyk2 kinase domain (DH1); 10 μM compound, 10 μM ATP): < 50%; inhibition at 10 µM (JAK2 kinase domain (JH1); 10 μM compound, 10 μM ATP): < 50% |
| CNc1cc(Nc2cccnc2OC2CN(CC(F)(F)F)C2)nc2c(C(=O)NC3CC3)cnn12 [I-367] | 0.2 to 1 | < 50 | < 50 |  |
| CNc1cc(Nc2cccn([C@@H]3C[C@H]3F)c2=O)nc2c(C(=O)N[C@H]3CC[C@H]3O)cnn12 [I-1089] | < 0.2 |  |  | inhibition at 10 µM (Tyk2 kinase domain (DH1); 10 μM compound, 10 μM ATP): < 50%; inhibition at 10 µM (JAK2 kinase domain (JH1); 10 μM compound, 10 μM ATP): < 50% |
| CNc1cc(Nc2cccn(C3=NC(C)(C)CS3)c2=O)nc2c(C(=O)NC3CCC3)cnn12 [I-503] | 0.2 to 1 | < 50 | < 50 |  |
| CNc1cc(Nc2cccnc2OC2CC2)nc2c(C(=O)NCCC3(O)CC3)cnn12 [I-469, 5-((2-cyclopropoxypyridin-3-yl)amino)-N-(2-(1-hydroxycyclopropyl)ethyl)-7-(methylamino)pyrazolo[1,5-a]pyrimidine-3-carboxamide] | 1 to 10 | < 50 | < 50 |  |
| CNc1cc(Nc2cccn(-c3cnn(C)c3F)c2=O)nc2c(C(=O)N[C@H]3C[C@H]3F)cnn12 [I-719] | < 0.2 | < 50 | < 50 |  |
| CNc1cc(Nc2cccn([C@@H]3CCCOC3)c2=O)nc2c(C(=O)N[C@H]3CCC[C@H](O)C3)cnn12 [I-703] | < 0.2 | < 50 | < 50 |  |
| CNc1cc(Nc2cccc([C@@H]3CCCOC3)n2)nc2c(C(=O)NCC(C)(C)CO)cnn12 [I-580] | < 0.2 | < 50 | < 50 |  |
| CNc1cc(Nc2cccnc2O[C@H]2CC[C@H](OC)CC2)nc2c(C(=O)N[C@H]3C[C@H]3F)cnn12 [I-249] | < 0.2 | < 50 | < 50 |  |
| CNc1cc(Nc2cccn([C@@H]3CCCOC3)c2=O)nc2c(C(=O)N[C@@H]3CCC[C@@H](O)C3)cnn12 [I-735] | < 0.2 | < 50 | < 50 |  |
| CNc1cc(Nc2cccn(-c3cccnc3C)c2=O)nc2c(C(=O)NCC(C)(C)CO)cnn12 [I-850] | 1 to 10 |  |  | inhibition at 10 µM (Tyk2 kinase domain (DH1); 10 μM compound, 10 μM ATP): < 50%; inhibition at 10 µM (JAK2 kinase domain (JH1); 10 μM compound, 10 μM ATP): < 50% |
| CNc1cc(Nc2cccc(N3CC4(CCO4)C3)n2)nc2c(C(=O)N[C@@H]3CC[C@@H]3O)cnn12 [I-873] | 1 to 10 |  |  | inhibition at 10 µM (Tyk2 kinase domain (DH1); 10 μM compound, 10 μM ATP): < 50%; inhibition at 10 µM (JAK2 kinase domain (JH1); 10 μM compound, 10 μM ATP): < 50% |
| CCCCn1cc(-c2cc(NC)n3ncc(C(=O)NC4CC4)c3n2)c2cccnc21 [I-477] | 0.2 to 1 | < 50 | < 50 |  |
| CNc1cc(Nc2cccc3ocnc23)nc2c(C(=O)N[C@@H]3COC[C@@H]3O)cnn12 [I-833] | > 10 |  |  | inhibition at 10 µM (Tyk2 kinase domain (DH1); 10 μM compound, 10 μM ATP): < 50%; inhibition at 10 µM (JAK2 kinase domain (JH1); 10 μM compound, 10 μM ATP): < 50% |
| CNc1cc(Nc2cccn([C@@H]3CCC[C@@H](OC)C3)c2=O)nc2c(C(=O)NC3CC3)cnn12 [I-1026] | < 0.2 |  |  | inhibition at 10 µM (Tyk2 kinase domain (DH1); 10 μM compound, 10 μM ATP): < 50%; inhibition at 10 µM (JAK2 kinase domain (JH1); 10 μM compound, 10 μM ATP): < 50% |
| Cc1cc(Nc2cc(N)n3ncc(C(N)=O)c3n2)c(=O)n(-c2ccnn2C)c1 [I-99] | 1 to 10 | < 50 | < 50 |  |

| SMILES | Kd [1] [nM] | inhibition at 10 µM (Tyk2 kinase domain (DH1); compound at 10 μM, ATP 10 μM) [%] | inhibition at 10 µM (JAK2 kinase domain (JH1); compound at 10 μM, ATP 10 μM) [%] | further results |
| --- | --- | --- | --- | --- |
| CNc1cc(Nc2cccnc2O[C@@H]2CCOC2)nc2c(C(=O)NC3CCC3)cnn12 [I-171] | 0.2 to 1 | < 50 | < 50 |  |
| CNc1cc(Nc2cccn(-c3ccc(F)cn3)c2=O)nc2c(C(=O)NC3CC3)cnn12 [I-116] | < 0.2 | < 50 | < 50 |  |
| CNc1cc(Nc2cccn([C@H]3CCCC[C@H]3O)c2=O)nc2c(C(=O)N[C@H]3CC[C@@H]3OC)cnn12 [I-1058] | 0.2 to 1 |  |  | inhibition at 10 µM (Tyk2 kinase domain (DH1); 10 μM compound, 10 μM ATP): < 50%; inhibition at 10 µM (JAK2 kinase domain (JH1); 10 μM compound, 10 μM ATP): < 50% |
| CNc1cc(Nc2cccc([C@H]3CCCOC3)n2)nc2c(C(=O)N[C@H]3CC[C@@H]3O)cnn12 [I-602] | < 0.2 | < 50 | < 50 |  |
| CNc1cc(Nc2cccc([C@H]3CCCOC3)n2)nc2c(C(=O)NC3CC3)cnn12 [I-549] | < 0.2 | < 50 | < 50 |  |
| CNc1cc(Nc2cccc([C@H]3CCCOC3)n2)nc2c(C(=O)N[C@H]3COC[C@H]3O)cnn12 [I-692] | < 0.2 | < 50 | < 50 |  |
| CNc1cc(Nc2cccn([C@@H]3CCC[C@@H]3OC)c2=O)nc2c(C(=O)N[C@@H]3C[C@@H]3F)cnn12 [I-537] | 1 to 10 |  |  | Tyk2 JH1% Inhibition @ 10 μM (Tyk2 kinase domain (DH1); compound at 10 μM, ATP 10 μM): A (percent inhibition at 10 μM lower than 50); JAK2 JH1% Inhibition @ 10 μM (JAK2 kinase domain (JH1); compound at 10 μM, ATP 10 μM): A (percent inhibition at 10 μM lower than 50) |
| CNc1cc(Nc2cccn(C3CCOCC3)c2=O)nc2c(C(=O)N[C@H]3CC[C@H]3O)cnn12 [I-527] | 0.2 to 1 | < 50 | < 50 |  |
| CNc1cc(-c2cn(CCN3CCOCC3)c3ncccc23)nc2c(C(=O)NCC3(CO)CC3)cnn12 [I-807, N-((1-(hydroxymethyl)cyclopropyl)methyl)-7-(methylamino)-5-(1-(2-morpholinoethyl)-1H-pyrrolo[2,3-b]pyridin-3-yl)pyrazolo[1,5-a]pyrimidine-3-carboxamide] | 0.2 to 1 | < 50 | < 50 |  |
| CNc1cc(Nc2cccn(C3CCCCC3)c2=O)nc2c(C(N)=O)cnn12 [I-12] | 1 to 10 | < 50 | < 50 |  |
| CNc1cc(Nc2cccn([C@@H]3CCC[C@@H](O)C3)c2=O)nc2c(C(=O)N[C@H]3CC[C@@H]3OC)cnn12 [I-1064] | < 0.2 |  |  | inhibition at 10 µM (Tyk2 kinase domain (DH1); 10 μM compound, 10 μM ATP): < 50%; inhibition at 10 µM (JAK2 kinase domain (JH1); 10 μM compound, 10 μM ATP): < 50% |
| CNc1cc(-c2nn(C3CCOC3)c3ncccc23)nc2c(C(=O)N[C@H]3C[C@H]3F)cnn12 (stereo partly drawn) [I-452] | < 0.2 | < 50 | < 50 |  |
| CNc1cc(Nc2cccn(C3=NC(C)(C)CS3)c2=O)nc2c(C(=O)NC3CC3)cnn12 [I-502] | 0.2 to 1 | < 50 | < 50 |  |
| Cc1cc(Nc2cc(N)n3ncc(C(N)=O)c3n2)cc(N2CCCC2)n1 [I-28] | > 10 | < 50 | < 50 |  |
| NC(=O)c1cnn2c(N)cc(Nc3cccc(N4CCOCC4)c3Cl)nc12 [I-22] | 0.2 to 1 | < 50 | 70 to 90 |  |
| NC(=O)c1cnn2c(N)cc(Nc3cccn(-c4ccon4)c3=O)nc12 [I-57] | 0.2 to 1 | < 50 | < 50 |  |
| CNc1cc(Nc2cccn(CCOC3CC3)c2=O)nc2c(C(=O)NC3CC4(COC4)C3)cnn12 [I-576, 5-((1-(2-cyclopropoxyethyl)-2-oxo-1,2-dihydropyridin-3-yl)amino)-7-(methylamino)-N-(2-oxaspiro[3.3]heptan-6-yl)pyrazolo[1,5-a]pyrimidine-3-carboxamide] | 1 to 10 | < 50 | < 50 |  |
| NC(=O)c1cnn2c(N)cc(Nc3cccn([C@H]4CC[C@@H](N5CCOCC5)CC4)c3=O)nc12 [I-76] | 1 to 10 | < 50 | < 50 |  |
| CNc1cc(Nc2cccn(-c3cccnc3C)c2=O)nc2c(C(=O)N[C@@H]3C[C@@H]3F)cnn12 [I-813] | 0.2 to 1 |  |  | inhibition at 10 µM (Tyk2 kinase domain (DH1); 10 μM compound, 10 μM ATP): < 50%; inhibition at 10 µM (JAK2 kinase domain (JH1); 10 μM compound, 10 μM ATP): < 50% |
| CNc1cc(Nc2cccn([C@H]3CCC[C@@H](OC)C3)c2=O)nc2c(C(=O)NCC3(CO)CC3)cnn12 (racemic) [I-862] | 0.2 to 1 |  |  | inhibition at 10 µM (Tyk2 kinase domain (DH1); 10 μM compound, 10 μM ATP): < 50%; inhibition at 10 µM (JAK2 kinase domain (JH1); 10 μM compound, 10 μM ATP): < 50% |
| CNc1cc(Nc2cccn(C[C@H]3CCCCO3)c2=O)nc2c(C(=O)N[C@@H]3C[C@@H]3F)cnn12 [I-427] | 0.2 to 1 | < 50 | < 50 |  |
| CNc1cc(Nc2cccc(N3CCC4(CCCO4)CC3)n2)nc2c(C(=O)NC3CC3)cnn12 [I-655] | 0.2 to 1 | < 50 | < 50 |  |
